Where two headings read alike, the source gives them in different places.
Experiments:
[1] = test system: Aβ40 in conditioned medium of cells stably expressing Amyloid Precursor Protein (APP); test: In vitro BACE cell-based assay (Aβ40 in conditioned medium, sandwich ELISA); conditions: read-out: HEK cell assay
Outline: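 Conditioned medium from stably APP-expressing cells treated with compound dose series is assayed for Aβ40 by sandwich ELISA with time-resolved fluorescence detection. IC50 is calculated from percent inhibition of Aβ40 against compound concentration.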

[2] = target: Beta Secretase enzyme (BACE) (Homo sapiens, UniProt P56817); test: In vitro enzymatic BACE FRET (fluorescence resonance energy transfer) assay; format: biochemical; conditions: average IC50, enzyme assay; read-out: BACE 1 FRET assay
Sequence of Beta Secretase enzyme (BACE) (P56817 46-501, species assumed): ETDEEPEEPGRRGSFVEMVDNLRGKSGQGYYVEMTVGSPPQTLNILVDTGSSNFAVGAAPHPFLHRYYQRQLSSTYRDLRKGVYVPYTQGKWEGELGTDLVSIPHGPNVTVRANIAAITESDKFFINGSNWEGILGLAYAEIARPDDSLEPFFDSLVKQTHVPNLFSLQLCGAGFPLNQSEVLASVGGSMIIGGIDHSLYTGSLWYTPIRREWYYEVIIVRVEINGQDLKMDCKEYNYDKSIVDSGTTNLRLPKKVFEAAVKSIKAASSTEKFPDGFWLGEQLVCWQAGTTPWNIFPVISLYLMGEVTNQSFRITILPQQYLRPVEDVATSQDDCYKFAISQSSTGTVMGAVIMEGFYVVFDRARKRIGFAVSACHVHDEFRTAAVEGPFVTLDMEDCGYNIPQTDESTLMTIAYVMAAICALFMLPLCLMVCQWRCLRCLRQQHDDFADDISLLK
Outline: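 Acetate buffer (0.05 M, pH 4.2), 10% DMSO final, 100 uM nonionic detergent genapol. Substrate addition (50 nM FRET peptide) initiates; one-hour incubation; Tris raises pH to neutrality before fluorescence measurement.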

[3] = Homo sapiens, HEK293, average IC50, HEK cells

IC50 [1, 3]	IC50 [2]	IC50 ([1]; average IC50, HEK cells)	SMILES
0.005 µM	0.0003 µM		NC1=N[C@@]2(CO1)c1cc(-c3cccnc3F)ccc1Oc1c2cc(N2CCOCC2)nc1F [Example 892, (5S)-1-fluoro-7-(2-fluoro-3-pyridinyl)-3-(4-morpholinyl)spiro[chromeno[2,3-c]pyridine-5,4′-[1,3]oxazol]-2′-amine]
0.008 µM	0.0024 µM		N#Cc1cccc(-c2ccc3c(c2)[C@@]2(COC(N)=N2)c2cc(N4CCOCC4)ncc2O3)c1 [Example 895, 3-((5S)-2′-amino-3-(4-morpholinyl)spiro[chromeno[2,3-c]pyridine-5,4′-[1,3]oxazol]-7-yl)benzonitrile]
0.074 µM	0.0024 µM		NC1=N[C@@]2(CO1)c1cc(-c3cccnc3F)c(F)cc1Oc1ncc(-c3ccc(F)nc3)cc12 [Example 896, (5S)-8-fluoro-7-(2-fluoro-3-pyridinyl)-3-(6-fluoro-3-pyridinyl)spiro[chromeno[2,3-b]pyridine-5,4′-[1,3]oxazol]-2′-amine]
6.36 µM	0.175 µM		NC1=N[C@]2(CO1)c1cc(-c3cccnc3F)c(F)cc1Oc1ncc(-c3ccc(F)nc3)cc12 [Example 897, (5R)-8-fluoro-7-(2-fluoro-3-pyridinyl)-3-(6-fluoro-3-pyridinyl)spiro[chromeno[2,3-b]pyridine-5,4′-[1,3]oxazol]-2′-amine]
≥ 10 µM	10.6 µM		NC1=N[C@@]2(CO1)c1cc(-c3cccnc3F)ccc1Oc1nc(F)c(I)cc12 [Example 898, (5S)-2-fluoro-7-(2-fluoro-3-pyridinyl)-3-iodospiro[chromeno[2,3-b]pyridine-5,4′-[1,3]oxazol]-2′-amine]
≥ 10 µM	40 µM		NC1=N[C@]2(CO1)c1cc(-c3cccnc3F)ccc1Oc1nc(F)c(I)cc12 [Example 899, (5R)-2-fluoro-7-(2-fluoro-3-pyridinyl)-3-iodospiro[chromeno[2,3-b]pyridine-5,4′-[1,3]oxazol]-2′-amine]
1.16 µM	0.0481 µM		CC1(C#Cc2cc3c(nc2F)Oc2ccc(-c4cccnc4F)cc2[C@]32COC(N)=N2)COC1 [Example 900, (5R)-2-fluoro-7-(2-fluoro-3-pyridinyl)-3-((3-methyl-3-oxetanyl)ethynyl)spiro[chromeno[2,3-b]pyridine-5,4′-[1,3]oxazol]-2′-amine]
3.21 µM	0.137 µM		NC1=N[C@]2(CO1)c1cc(-c3cccnc3F)ccc1Oc1nc(F)c(C3=CCCOC3)cc12 [Example 902, (5R)-3-(5,6-dihydro-2H-pyran-3-yl)-2-fluoro-7-(2-fluoro-3-pyridinyl)spiro[chromeno[2,3-b]pyridine-5,4′-[1,3]oxazol]-2′-amine]
0.049 µM	0.0014 µM		NC1=N[C@@]2(CO1)c1cc(-c3cccnc3F)ccc1Oc1nc(F)c(C3=CCCOC3)cc12 [Example 903, (5S)-3-(5,6-dihydro-2H-pyran-3-yl)-2-fluoro-7-(2-fluoro-3-pyridinyl)spiro[chromeno[2,3-b]pyridine-5,4′-[1,3]oxazol]-2′-amine]
≥ 10 µM	0.269 µM		NC1=N[C@]2(CO1)c1cc(-c3cccnc3F)ccc1Oc1nc(F)c(N3CCOCC3)cc12 [Example 904, (5R)-2-fluoro-7-(2-fluoro-3-pyridinyl)-3-(4-morpholinyl)spiro[chromeno[2,3-b]pyridine-5,4′-[1,3]oxazol]-2′-amine]
3.11 µM	0.126 µM		CC1(C#Cc2cc3c(nc2F)Oc2ccc(-c4ccc(F)nc4)cc2[C@]32COC(N)=N2)COC1 [Example 905, (5R)-2-fluoro-7-(6-fluoro-3-pyridinyl)-3-((3-methyl-3-oxetanyl)ethynyl)spiro[chromeno[2,3-b]pyridine-5,4′-[1,3]oxazol]-2′-amine]
1.49 µM	0.0542 µM		CC1(C#Cc2cc3c(nc2F)Oc2ccc(-c4cncc(F)c4)cc2[C@]32COC(N)=N2)COC1 [Example 906, (5R)-2-fluoro-7-(5-fluoro-3-pyridinyl)-3-((3-methyl-3-oxetanyl)ethynyl)spiro[chromeno[2,3-b]pyridine-5,4′-[1,3]oxazol]-2′-amine]
0.023 µM	0.0011 µM		CC1(C#Cc2cc3c(nc2F)Oc2ccc(-c4cncc(F)c4)cc2[C@@]32COC(N)=N2)COC1 [Example 907, (5S)-2-fluoro-7-(5-fluoro-3-pyridinyl)-3-((3-methyl-3-oxetanyl)ethynyl)spiro[chromeno[2,3-b]pyridine-5,4′-[1,3]oxazol]-2′-amine]
1.77 µM	0.0223 µM		CC(C)(C)COc1ccc2c(c1)[C@]1(COC(N)=N1)c1cc(C3=CCCOC3)ccc1O2 [Example 910, (4S)-2′-(5,6-dihydro-2H-pyran-3-yl)-7′-(2,2-dimethylpropoxy)spiro[1,3-oxazole-4,9′-xanthen]-2-amine]
1.29 µM	0.0192 µM		CC(C)(C)COc1ccc2c(c1)C1(COC(N)=N1)c1cc(C3CCCOC3)ccc1O2 [Example 911, (4S)-2′-(2,2-dimethylpropoxy)-7′-((3R)-tetrahydro-2H-pyran-3-yl)spiro[1,3-oxazole-4,9′-xanthen]-2-amine, (4S)-2′-(2,2-dimethylpropoxy)-7′-((3S)-tetrahydro-2H-pyran-3-yl)spiro[1,3-oxazole-4,9′-xanthen]-2-amine]
0.338 µM	0.0251 µM		NC1=N[C@@]2(CO1)c1cc(-c3c(F)ccnc3F)ccc1Oc1cnc([C@@H]3CCCOC3)cc12 [Example 912, (5S)-7-(2,4-difluoro-3-pyridinyl)-3-((3S)-tetrahydro-2H-pyran-3-yl)spiro[chromeno[2,3-c]pyridine-5,4′-[1,3]oxazol]-2′-amine]
	0.0135 µM	0.102 µM	NC1=N[C@@]2(CO1)c1cc(-c3c(F)ccnc3F)ccc1Oc1cnc([C@H]3CCCCO3)cc12 [Example 914, (5S)-7-(2,4-difluoro-3-pyridinyl)-3-((2R)-tetrahydro-2H-pyran-2-yl)spiro[chromeno[2,3-c]pyridine-5,4′-[1,3]oxazol]-2′-amine]
0.023 µM	0.0025 µM		NC1=N[C@@]2(CO1)c1cc(-c3c(F)ccnc3F)ccc1Oc1cnc([C@@H]3CCCCO3)cc12 [Example 915, (5S)-7-(2,4-difluoro-3-pyridinyl)-3-((2S)-tetrahydro-2H-pyran-2-yl)spiro[chromeno[2,3-c]pyridine-5,4′-[1,3]oxazol]-2′-amine]
0.005 µM	0.0003 µM		NC1=N[C@@]2(CO1)c1cc(-c3cccnc3F)ccc1Oc1c2cc(N2CC[C@H](F)C2)nc1F [Example 917, (5S)-1-fluoro-7-(2-fluoro-3-pyridinyl)-3-((3S)-3-fluoro-1-pyrrolidinyl)spiro[chromeno[2,3-c]pyridine-5,4′-[1,3]oxazol]-2′-amine]
0.004 µM	0.0002 µM		NC1=N[C@@]2(CO1)c1cc(-c3cccnc3F)ccc1Oc1c2cc(N2CCC(F)(F)C2)nc1F [Example 918, (S)-3-(3,3-difluoropyrrolidin-1-yl)-1-fluoro-7-(2-fluoropyridin-3-yl)-5′-H-spiro[chromeno[2,3-c]pyridine-5,4′-oxazol]-2′-amine]
0.006 µM	0.0004 µM		N#Cc1cccc(-c2ccc3c(c2)[C@@]2(COC(N)=N2)c2cc(N4CC[C@@H](F)C4)nc(F)c2O3)c1 [Example 919, 3-((5S)-2′-amino-1-fluoro-3-((3R)-3-fluoro-1-pyrrolidinyl)spiro[chromeno[2,3-c]pyridine-5,4′-[1,3]oxazol]-7-yl)benzonitrile]
0.012 µM	0.0002 µM		N#Cc1cccc(-c2ccc3c(c2)[C@@]2(COC(N)=N2)c2cc(N4CCC(F)(F)C4)nc(F)c2O3)c1 [Example 920, 3-((5S)-2′-amino-3-(3,3-difluoro-1-pyrrolidinyl)-1-fluorospiro[chromeno[2,3-c]pyridine-5,4′-[1,3]oxazol]-7-yl)benzonitrile]
0.006 µM	0.0005 µM		NC1=N[C@@]2(CO1)c1cc(-c3cncc(F)c3)ccc1Oc1c2cc(N2CC[C@@H](F)C2)nc1F [Example 921, (5S)-1-fluoro-7-(5-fluoro-3-pyridinyl)-3-((3R)-3-fluoro-1-pyrrolidinyl)spiro[chromeno[2,3-c]pyridine-5,4′-[1,3]oxazol]-2′-amine]
0.032 µM	0.0003 µM		N#Cc1cccc(-c2ccc3c(c2)[C@@]2(COC(N)=N2)c2cc(N4CCC(F)(F)CC4)nc(F)c2O3)c1 [Example 923, 3-((5S)-2′-amino-3-(4,4-difluoro-1-piperidinyl)-1-fluorospiro[chromeno[2,3-c]pyridine-5,4′-[1,3]oxazol]-7-yl)benzonitrile]
0.018 µM	0.0005 µM		N#Cc1cccc(-c2ccc3c(c2)[C@@]2(COC(N)=N2)c2cc(N4CC[C@H](F)C4)nc(F)c2O3)c1 [Example 924, 3-((5S)-2′-amino-1-fluoro-3-((3S)-3-fluoro-1-pyrrolidinyl)spiro[chromeno[2,3-c]pyridine-5,4′-[1,3]oxazol]-7-yl)benzonitrile]
0.547 µM	0.0246 µM		CC#Cc1cncc(-c2ccc3c(c2)[C@@]2(COC(N)=N2)c2cc(Cl)nc(N4CCC(F)(F)C4)c2O3)c1 [Example 925, (5S)-3-chloro-1-(3,3-difluoro-1-pyrrolidinyl)-7-(5-(1-propyn-1-yl)-3-pyridinyl)spiro[chromeno[2,3-c]pyridine-5,4′-[1,3]oxazol]-2′-amine]

SMILES	IC50 [1, 3]	IC50 [2]	IC50 ([1]; average IC50, HEK cells)
NC1=N[C@@]2(CO1)c1cc(-c3c(F)ccnc3F)ccc1Oc1cnc([C@H]3CCCOC3)cc12 [Example 913, (5S)-7-(2,4-difluoro-3-pyridinyl)-3-((3R)-tetrahydro-2H-pyran-3-yl)spiro[chromeno[2,3-c]pyridine-5,4′-[1,3]oxazol]-2′-amine]	0.211 µM	0.0161 µM	

— patent publication US8883782B2, “Spiro-tetracyclic ring compounds as beta-secretase modulators and methods of use” (Amgen Inc., priority 2010, dated 2014)
